Experimental data as given in PMC6052462, “Oxidation resistance 1 is a novel senolytic target” (Aging Cell, 2018).

Target: T1, OXR1 (endogenous, senescent WI38 cells) (Homo sapiens, UniProt Q8N573)
T1 construct: native protein of human WI38 fibroblasts (senescent)
T1 sequence (Q8N573 1-874): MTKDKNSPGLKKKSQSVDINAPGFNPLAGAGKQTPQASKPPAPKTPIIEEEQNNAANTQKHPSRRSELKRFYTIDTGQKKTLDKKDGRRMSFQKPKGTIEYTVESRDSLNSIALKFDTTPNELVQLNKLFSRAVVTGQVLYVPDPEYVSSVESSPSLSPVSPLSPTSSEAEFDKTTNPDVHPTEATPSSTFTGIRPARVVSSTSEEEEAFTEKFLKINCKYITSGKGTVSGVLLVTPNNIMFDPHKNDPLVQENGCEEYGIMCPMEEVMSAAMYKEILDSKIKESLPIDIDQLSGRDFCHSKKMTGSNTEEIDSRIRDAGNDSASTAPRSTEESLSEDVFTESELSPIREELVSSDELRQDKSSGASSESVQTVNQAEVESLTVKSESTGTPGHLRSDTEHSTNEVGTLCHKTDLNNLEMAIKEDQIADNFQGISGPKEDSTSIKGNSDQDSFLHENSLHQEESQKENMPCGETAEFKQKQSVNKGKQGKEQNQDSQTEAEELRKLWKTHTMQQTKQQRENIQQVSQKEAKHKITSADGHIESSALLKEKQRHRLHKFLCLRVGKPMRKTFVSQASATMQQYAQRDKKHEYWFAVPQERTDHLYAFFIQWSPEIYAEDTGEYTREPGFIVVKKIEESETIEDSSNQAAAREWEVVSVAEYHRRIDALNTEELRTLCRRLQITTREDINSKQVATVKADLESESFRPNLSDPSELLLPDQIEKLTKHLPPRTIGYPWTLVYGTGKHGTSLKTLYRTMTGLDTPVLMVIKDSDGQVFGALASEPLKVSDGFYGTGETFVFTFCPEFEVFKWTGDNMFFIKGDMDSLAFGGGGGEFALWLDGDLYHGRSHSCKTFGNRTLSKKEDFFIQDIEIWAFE
Test: click-chemistry pull-down from live cells, LC-MS/MS
Type: cell-based
Details: labelled compound; 5 µM, 5 h; covalent

C#CCCOc1c(OC)cc(/C=C/C(=O)N2CCC=CC2=O)cc1OC [PL probe, alkyne-labeled piperlongumine]
click-chemistry pull-down from live cells, LC-MS/MS: OXR1 was on the top of the list of the PL‐binding proteins in SCs
